Test results published in the supplement of paper PMC10307832.

Columns and labels:
Assay in all cases: relative viability (nuclei count vs DMSO), 5 days (fraction); higher = more cells survive
[1] = compound: C1CNCCC1C2=CC(=NN2)C3=CC=NC=C3 + Cc1nc(Nc2ncc(C(=O)Nc3c(C)cccc3Cl)s2)cc(N2CCN(CCO)CC2)n1 [Dasatinib] (partner 0.075 µM)
Summary of the method: (§1)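 Lung cancer cell lines were seeded in 1536-well plates and dosed by pin tool the next day, with either a single drug or a fixed anchor-drug dose combined with five library-drug doses (not always all listed) spaced in √10 steps. Five days later, one step fixed the cells and stained their nuclei (final 0.05% Triton X-100, 1% formaldehyde, 1 ug/ml Hoechst), and nuclei were counted on 4× images. Relative viability is the nuclei count in treated wells divided by the count in vehicle wells, and each value is the median of duplicate plates.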

[2] = compound: C1CNCCC1C2=CC(=NN2)C3=CC=NC=C3 + NC(=O)Nc1cc(-c2cccc(F)c2)sc1C(=O)N[C@H]1CCCNC1 [AZD7762] (partner 0.2 µM)
Summary of the method: as §1

[3] = compound: C[C@@H](N)c1ccc(C(=O)Nc2ccnc3[nH]ccc23)cc1 + NC(=O)Nc1cc(-c2cccc(F)c2)sc1C(=O)N[C@H]1CCCNC1 [AZD7762] (partner 0.2 µM)
Summary of the method: as §1

Tanzisertib + Olaparib = compound: O[C@H]1CC[C@H](Nc2ncc3nc(Nc4c(F)cc(F)cc4F)n([C@H]4CCOC4)c3n2)CC1 [Tanzisertib] + O=C(c1cc(Cc2n[nH]c(=O)c3ccccc23)ccc1F)N1CCN(C(=O)C2CC2)CC1 [Olaparib] (partner 8 µM)
Summary of the method: as §1

| Cell Line | relative viability ([1]; first compound 0.08 µM) | relative viability ([1]; first compound 0.8 µM) | relative viability ([1]; first compound 2.53 µM) | relative viability ([1]; first compound 8 µM) | relative viability ([2]; first compound 0.08 µM) | relative viability ([2]; first compound 0.8 µM) | relative viability ([2]; first compound 2.53 µM) | relative viability ([2]; first compound 8 µM) | relative viability ([3]; first compound 0.04 µM) | relative viability ([3]; first compound 0.1265 µM) | relative viability ([3]; first compound 0.4 µM) | relative viability ([3]; first compound 1.265 µM) | relative viability ([3]; first compound 4 µM) | relative viability (Tanzisertib + Olaparib; first compound 0.08 µM) | relative viability (Tanzisertib + Olaparib; first compound 0.253 µM) | relative viability (Tanzisertib + Olaparib; first compound 0.8 µM) | relative viability (Tanzisertib + Olaparib; first compound 2.53 µM) | relative viability (Tanzisertib + Olaparib; first compound 8 µM) |
| --- | --- | --- | --- | --- | --- | --- | --- | --- | --- | --- | --- | --- | --- | --- | --- | --- | --- | --- |
| NCI-H647 | 0.176 | 0.169 | 0.187 | 0.161 | 0.409 | 0.43 | 0.383 | 0.431 | 0.397 | 0.423 | 0.517 | 0.392 | 0.439 | 0.875 | 0.487 | 0.505 | 0.657 | 0.65 |
| NCI-H650 | 0.468 | 0.45 | 0.5 | 0.428 | 0.853 | 1.07 | 1.09 | 0.949 | – | 1.09 | 0.992 | – | 0.886 | 0.373 | 0.391 | 0.359 | 0.426 | 0.391 |
| EKVX | 0.576 | 0.565 | 0.645 | 0.525 | 0.754 | – | 0.704 | 0.701 | 0.708 | 0.714 | 0.896 | 0.745 | 0.707 | 0.888 | 0.876 | 0.862 | 0.872 | 0.792 |
| NCI-H460 | 0.387 | 0.454 | 0.537 | 0.529 | 0.69 | 0.673 | 0.652 | 0.658 | 0.66 | 0.656 | 0.844 | 0.873 | 0.913 | 0.487 | 0.445 | 0.417 | 0.442 | 0.503 |
| NCI-H2342 | 0.343 | 0.268 | 0.357 | 0.41 | 0.572 | 0.351 | 0.57 | 0.591 | 0.508 | 0.643 | 0.534 | 0.611 | 0.584 | 0.572 | 0.423 | 0.483 | 0.485 | 0.439 |
| LCLC-97TM1 | 0.875 | 0.784 | 0.923 | 0.758 | 0.27 | 0.239 | 0.248 | 0.332 | 0.302 | 0.234 | 0.425 | 0.314 | 0.639 | 0.487 | 0.51 | 0.416 | 0.301 | 0.47 |
| NCI-H1355 | 0.651 | 0.718 | 0.798 | 0.695 | 0.682 | 0.801 | 0.822 | 0.796 | 0.761 | 0.819 | 0.901 | 0.91 | 0.871 | 0.772 | 0.735 | 0.756 | 0.757 | 0.796 |
| NCI-H1666 | 0.718 | 0.941 | 0.821 | 0.783 | 0.829 | 0.847 | 1.04 | 1 | 0.824 | 0.953 | 1.13 | 1.12 | 0.98 | 0.754 | 0.801 | 0.747 | 0.729 | 0.768 |
